Measured values taken from ChEMBL document CHEMBL5634108, “The latest perspectives of small molecules FMS kinase inhibitors” (Eur J Med Chem, 2023).
Blank lines part the entries; values can stand above or below the compound they belong to.

Columns and labels:
[1] = target: T1, Receptor-type tyrosine-protein kinase FLT3 (Homo sapiens, UniProt P36888); assay: Inhibition of FLT3 (unknown origin) by enzymatic assay
T1 sequence (P36888 whole entry): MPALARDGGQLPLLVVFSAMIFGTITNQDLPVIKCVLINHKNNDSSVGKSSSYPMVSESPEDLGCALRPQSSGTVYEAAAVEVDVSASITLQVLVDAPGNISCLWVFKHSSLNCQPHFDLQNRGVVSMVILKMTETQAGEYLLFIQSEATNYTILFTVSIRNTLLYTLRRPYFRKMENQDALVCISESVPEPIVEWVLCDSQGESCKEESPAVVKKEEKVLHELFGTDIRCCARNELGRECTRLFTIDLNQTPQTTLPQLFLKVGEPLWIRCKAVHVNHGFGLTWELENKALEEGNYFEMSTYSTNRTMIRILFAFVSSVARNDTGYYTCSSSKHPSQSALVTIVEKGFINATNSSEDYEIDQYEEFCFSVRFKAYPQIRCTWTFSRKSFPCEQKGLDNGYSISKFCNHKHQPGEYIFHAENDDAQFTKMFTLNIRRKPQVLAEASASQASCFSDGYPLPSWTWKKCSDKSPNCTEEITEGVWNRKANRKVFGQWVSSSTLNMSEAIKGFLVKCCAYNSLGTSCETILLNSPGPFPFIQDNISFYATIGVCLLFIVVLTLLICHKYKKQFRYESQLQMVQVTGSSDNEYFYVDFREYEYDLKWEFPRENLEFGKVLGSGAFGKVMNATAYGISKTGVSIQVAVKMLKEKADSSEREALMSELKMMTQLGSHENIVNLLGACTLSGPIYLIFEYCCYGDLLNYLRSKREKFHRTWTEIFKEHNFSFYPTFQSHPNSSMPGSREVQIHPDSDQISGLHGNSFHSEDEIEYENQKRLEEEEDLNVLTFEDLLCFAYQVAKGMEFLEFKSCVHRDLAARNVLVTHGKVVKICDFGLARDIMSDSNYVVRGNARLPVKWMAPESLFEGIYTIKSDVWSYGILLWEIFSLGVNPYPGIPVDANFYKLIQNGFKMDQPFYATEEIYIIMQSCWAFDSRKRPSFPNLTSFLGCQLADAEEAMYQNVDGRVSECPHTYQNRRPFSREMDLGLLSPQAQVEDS

[2] = target: T2, Aurora kinase C (Homo sapiens, UniProt Q9UQB9); assay: Inhibition of human AURKC by discoverX kinome scan assay
T2 sequence (Q9UQB9 whole entry): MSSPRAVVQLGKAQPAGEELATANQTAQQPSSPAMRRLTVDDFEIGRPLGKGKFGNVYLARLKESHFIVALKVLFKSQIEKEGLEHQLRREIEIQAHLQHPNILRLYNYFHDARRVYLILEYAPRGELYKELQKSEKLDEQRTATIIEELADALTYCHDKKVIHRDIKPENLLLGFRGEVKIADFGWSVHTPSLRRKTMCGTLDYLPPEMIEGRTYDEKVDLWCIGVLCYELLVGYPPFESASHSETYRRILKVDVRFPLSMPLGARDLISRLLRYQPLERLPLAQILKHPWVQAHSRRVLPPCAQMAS

[3] = target: T2, Aurora kinase C; assay: Inhibition of AURKC (unknown origin)
[4] = target: T3, Vascular endothelial growth factor receptor 2 (Homo sapiens, UniProt P35968); assay: Inhibition of KDR (unknown origin)
T3 sequence (P35968 whole entry): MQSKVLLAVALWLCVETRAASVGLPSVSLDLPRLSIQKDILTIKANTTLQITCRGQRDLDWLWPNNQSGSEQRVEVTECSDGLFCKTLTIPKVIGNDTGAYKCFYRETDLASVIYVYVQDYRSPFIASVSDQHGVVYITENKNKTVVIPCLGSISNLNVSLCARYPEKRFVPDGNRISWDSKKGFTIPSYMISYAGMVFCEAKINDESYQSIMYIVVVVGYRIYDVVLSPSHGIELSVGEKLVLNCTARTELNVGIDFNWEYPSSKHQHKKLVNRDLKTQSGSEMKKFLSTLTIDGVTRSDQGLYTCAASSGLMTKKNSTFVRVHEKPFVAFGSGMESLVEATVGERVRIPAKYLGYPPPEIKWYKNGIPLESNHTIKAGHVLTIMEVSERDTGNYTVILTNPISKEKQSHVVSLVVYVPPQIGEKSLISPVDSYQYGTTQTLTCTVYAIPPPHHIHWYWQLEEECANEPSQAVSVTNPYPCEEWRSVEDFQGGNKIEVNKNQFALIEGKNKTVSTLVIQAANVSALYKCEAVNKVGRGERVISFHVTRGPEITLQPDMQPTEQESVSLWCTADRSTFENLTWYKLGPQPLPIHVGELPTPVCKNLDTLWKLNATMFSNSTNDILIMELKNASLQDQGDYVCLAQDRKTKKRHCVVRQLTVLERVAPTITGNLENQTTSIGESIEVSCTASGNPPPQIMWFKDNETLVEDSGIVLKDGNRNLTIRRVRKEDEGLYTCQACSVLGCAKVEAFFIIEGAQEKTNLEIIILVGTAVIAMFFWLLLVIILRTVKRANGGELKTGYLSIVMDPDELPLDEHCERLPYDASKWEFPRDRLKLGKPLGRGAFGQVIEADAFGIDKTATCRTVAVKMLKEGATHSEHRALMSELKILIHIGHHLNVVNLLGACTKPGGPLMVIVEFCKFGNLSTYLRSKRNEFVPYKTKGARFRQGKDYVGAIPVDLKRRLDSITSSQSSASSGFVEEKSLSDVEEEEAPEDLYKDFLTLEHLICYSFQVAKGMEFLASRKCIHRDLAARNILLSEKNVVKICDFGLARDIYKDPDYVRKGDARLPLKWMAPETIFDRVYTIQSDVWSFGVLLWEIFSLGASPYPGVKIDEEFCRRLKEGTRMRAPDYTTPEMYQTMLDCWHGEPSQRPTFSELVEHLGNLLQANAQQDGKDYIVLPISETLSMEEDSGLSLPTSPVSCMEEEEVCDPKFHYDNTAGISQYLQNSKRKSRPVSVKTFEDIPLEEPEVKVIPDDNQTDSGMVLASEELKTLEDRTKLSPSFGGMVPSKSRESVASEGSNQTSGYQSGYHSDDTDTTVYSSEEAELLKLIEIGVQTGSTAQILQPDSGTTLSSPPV

[5] = target: Receptor-type tyrosine-protein kinase FLT3 (Homo sapiens, UniProt P36888, ITD); assay: Inhibition of FLT3 ITD mutant (unknown origin) preincubated for 60 mins followed by ATP addition and measured after 1 hr by ADP-Glo assay
[6] = target: T4, Mast/stem cell growth factor receptor Kit (Homo sapiens, UniProt P10721); assay: Inhibition of KIT (unknown origin) using ATP as substrate incubated for 1 hrs by ELISA
T4 sequence (P10721 whole entry): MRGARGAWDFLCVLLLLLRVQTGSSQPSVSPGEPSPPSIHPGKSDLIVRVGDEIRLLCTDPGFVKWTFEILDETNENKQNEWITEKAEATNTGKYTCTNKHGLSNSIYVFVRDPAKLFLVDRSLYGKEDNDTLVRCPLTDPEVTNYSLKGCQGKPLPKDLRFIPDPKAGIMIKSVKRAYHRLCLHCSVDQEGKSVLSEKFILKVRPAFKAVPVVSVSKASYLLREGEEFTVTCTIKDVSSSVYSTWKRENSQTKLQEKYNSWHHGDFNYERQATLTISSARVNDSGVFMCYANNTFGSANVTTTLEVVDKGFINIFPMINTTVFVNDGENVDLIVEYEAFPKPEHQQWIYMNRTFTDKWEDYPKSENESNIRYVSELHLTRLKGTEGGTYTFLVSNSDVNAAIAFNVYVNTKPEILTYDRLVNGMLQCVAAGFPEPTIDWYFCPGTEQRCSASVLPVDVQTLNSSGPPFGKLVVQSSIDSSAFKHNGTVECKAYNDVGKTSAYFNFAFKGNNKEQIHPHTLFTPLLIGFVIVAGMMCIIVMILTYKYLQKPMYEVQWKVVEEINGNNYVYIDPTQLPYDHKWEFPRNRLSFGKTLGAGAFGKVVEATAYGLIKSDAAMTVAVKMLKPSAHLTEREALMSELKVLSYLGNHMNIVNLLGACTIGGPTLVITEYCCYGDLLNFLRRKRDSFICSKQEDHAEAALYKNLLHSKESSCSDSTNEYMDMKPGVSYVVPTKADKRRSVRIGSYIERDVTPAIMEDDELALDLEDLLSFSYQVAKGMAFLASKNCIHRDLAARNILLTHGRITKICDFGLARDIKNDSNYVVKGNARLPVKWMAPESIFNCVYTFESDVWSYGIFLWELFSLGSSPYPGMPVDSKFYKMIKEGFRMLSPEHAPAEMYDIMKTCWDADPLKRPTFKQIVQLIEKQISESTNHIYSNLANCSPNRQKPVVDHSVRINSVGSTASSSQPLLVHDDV

[7] = target: Vascular endothelial growth factor receptor 1 (Homo sapiens, UniProt P17948); assay: Inhibition of FLT1 (unknown origin)
[8] = target: T3, Vascular endothelial growth factor receptor 2; assay: Inhibition of VEGFR-2 (unknown origin) in presence of ATP incubated for 45 mins by ELISA method
[9] = target: T5, Tyrosine-protein kinase Lck (Homo sapiens, UniProt P06239); assay: Inhibition of LCK (unknown origin) using TK as substrate incubated for 30 mins by HTRF assay
[10] = target: T6, NT-3 growth factor receptor (Homo sapiens, UniProt Q16288); assay: Inhibition of TRKC (unknown origin)
T6 sequence (Q16288 whole entry): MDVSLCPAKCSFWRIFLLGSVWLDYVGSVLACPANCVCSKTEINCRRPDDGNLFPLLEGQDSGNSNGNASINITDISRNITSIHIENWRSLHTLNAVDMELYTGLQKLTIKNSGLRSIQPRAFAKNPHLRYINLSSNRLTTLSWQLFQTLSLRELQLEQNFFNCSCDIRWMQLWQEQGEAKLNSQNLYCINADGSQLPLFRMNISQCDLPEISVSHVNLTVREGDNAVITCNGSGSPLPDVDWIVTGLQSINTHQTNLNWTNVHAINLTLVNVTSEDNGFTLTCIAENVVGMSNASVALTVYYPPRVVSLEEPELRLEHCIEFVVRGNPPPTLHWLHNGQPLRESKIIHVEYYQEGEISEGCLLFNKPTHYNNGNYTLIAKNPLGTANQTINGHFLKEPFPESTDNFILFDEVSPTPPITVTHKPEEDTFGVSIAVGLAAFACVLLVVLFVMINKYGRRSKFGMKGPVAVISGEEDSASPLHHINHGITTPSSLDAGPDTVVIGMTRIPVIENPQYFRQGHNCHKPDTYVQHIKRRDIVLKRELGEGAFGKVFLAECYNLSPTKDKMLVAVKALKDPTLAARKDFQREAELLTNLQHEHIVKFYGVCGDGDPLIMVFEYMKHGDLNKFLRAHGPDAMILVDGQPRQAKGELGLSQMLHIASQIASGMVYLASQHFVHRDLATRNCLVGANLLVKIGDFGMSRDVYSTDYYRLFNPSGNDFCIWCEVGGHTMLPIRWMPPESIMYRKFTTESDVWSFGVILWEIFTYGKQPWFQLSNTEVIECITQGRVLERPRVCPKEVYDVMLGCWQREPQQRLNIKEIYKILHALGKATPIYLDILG

[11] = target: T6, NT-3 growth factor receptor; assay: Inhibition of TRKC (unknown origin) by TR-FRET assay
[12] = target: T7, Macrophage colony-stimulating factor 1 receptor (Homo sapiens, UniProt P07333); assay: Inhibition of CSF1R (unknown origin)
T7 sequence (P07333 whole entry): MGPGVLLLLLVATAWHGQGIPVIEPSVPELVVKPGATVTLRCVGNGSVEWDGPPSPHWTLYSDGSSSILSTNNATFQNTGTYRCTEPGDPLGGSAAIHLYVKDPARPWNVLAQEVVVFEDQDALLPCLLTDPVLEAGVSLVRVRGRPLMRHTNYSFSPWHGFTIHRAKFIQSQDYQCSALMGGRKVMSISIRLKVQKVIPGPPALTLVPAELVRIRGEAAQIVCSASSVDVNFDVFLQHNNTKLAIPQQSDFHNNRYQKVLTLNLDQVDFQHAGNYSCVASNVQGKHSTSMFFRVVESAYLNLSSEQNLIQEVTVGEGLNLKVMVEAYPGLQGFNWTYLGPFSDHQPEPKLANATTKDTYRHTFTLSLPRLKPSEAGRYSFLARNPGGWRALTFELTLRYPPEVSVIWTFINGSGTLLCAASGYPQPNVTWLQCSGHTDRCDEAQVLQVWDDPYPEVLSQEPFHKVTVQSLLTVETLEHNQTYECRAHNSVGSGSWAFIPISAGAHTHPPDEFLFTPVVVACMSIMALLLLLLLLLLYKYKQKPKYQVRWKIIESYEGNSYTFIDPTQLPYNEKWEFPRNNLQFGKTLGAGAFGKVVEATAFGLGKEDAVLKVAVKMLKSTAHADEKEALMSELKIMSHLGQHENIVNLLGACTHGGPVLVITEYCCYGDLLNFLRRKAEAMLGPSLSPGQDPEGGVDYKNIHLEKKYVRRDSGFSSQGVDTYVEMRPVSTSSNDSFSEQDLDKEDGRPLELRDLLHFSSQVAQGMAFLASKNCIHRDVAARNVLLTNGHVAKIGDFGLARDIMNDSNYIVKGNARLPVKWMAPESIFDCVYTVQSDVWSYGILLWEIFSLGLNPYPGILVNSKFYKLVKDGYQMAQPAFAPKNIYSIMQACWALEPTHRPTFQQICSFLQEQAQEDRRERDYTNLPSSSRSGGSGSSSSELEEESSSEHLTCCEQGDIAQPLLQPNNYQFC

[13] = target: T4, Mast/stem cell growth factor receptor Kit; assay: Inhibition of c-Kit (unknown origin) in presence of ATP
[14] = target: Receptor-type tyrosine-protein kinase FLT3 (Homo sapiens) (UniProt P36888); assay: Inhibition of FLT3 (unknown origin) at 10 uM relative to control
[15] = target: T8, Tyrosine-protein kinase receptor UFO (Homo sapiens, UniProt P30530); assay: Inhibition of AXL (unknown origin) by FRET assay
T8 sequence (P30530 whole entry): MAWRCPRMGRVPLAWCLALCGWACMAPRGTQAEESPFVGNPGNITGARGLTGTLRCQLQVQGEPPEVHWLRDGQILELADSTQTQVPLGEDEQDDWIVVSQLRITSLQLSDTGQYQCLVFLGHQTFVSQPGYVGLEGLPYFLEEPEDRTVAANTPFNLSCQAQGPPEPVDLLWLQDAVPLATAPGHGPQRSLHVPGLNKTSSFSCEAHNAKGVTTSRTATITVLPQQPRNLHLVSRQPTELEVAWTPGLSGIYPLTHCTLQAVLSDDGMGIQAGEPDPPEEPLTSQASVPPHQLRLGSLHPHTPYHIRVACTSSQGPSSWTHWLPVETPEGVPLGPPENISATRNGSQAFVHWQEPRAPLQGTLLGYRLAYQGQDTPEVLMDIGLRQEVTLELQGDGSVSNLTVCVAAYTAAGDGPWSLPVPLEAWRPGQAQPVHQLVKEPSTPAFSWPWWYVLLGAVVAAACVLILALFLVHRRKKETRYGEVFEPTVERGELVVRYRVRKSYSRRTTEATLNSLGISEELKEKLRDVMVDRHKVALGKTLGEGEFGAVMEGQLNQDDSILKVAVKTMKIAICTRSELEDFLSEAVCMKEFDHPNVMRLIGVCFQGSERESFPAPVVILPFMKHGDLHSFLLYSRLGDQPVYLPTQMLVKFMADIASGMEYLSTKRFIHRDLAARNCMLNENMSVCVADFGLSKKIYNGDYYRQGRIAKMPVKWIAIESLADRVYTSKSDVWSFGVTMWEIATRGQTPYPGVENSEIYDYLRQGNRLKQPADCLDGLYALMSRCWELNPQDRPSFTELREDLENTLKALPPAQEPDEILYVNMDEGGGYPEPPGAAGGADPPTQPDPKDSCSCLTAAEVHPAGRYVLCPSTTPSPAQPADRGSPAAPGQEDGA

[16] = target: Receptor-type tyrosine-protein kinase FLT3 (Homo sapiens) (UniProt P36888); assay: Inhibition of FLT3 (unknown origin) at 10 uM by biochemical Hotspot kinase assay relative to control
[17] = target: T5, Tyrosine-protein kinase Lck; assay: Inhibition of LCK (unknown origin) at 10 uM using 33P-ATP as substrate by biochemical Hotspot kinase assay relative to control
Target sequence in this assay (P06239 2-509 limits assumed): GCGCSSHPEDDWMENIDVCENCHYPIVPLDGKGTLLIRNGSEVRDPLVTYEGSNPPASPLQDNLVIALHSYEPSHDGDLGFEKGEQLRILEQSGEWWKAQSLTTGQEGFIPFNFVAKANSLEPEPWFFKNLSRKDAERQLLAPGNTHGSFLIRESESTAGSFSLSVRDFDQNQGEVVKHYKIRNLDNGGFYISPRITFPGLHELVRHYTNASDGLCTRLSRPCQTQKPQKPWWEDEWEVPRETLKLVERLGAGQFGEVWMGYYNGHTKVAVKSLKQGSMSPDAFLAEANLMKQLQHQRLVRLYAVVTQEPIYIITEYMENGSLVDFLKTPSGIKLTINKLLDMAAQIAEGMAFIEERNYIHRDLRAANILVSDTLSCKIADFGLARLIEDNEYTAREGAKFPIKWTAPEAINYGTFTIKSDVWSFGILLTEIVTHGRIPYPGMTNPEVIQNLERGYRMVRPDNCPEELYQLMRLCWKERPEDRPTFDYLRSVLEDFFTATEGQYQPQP

[18] = test system: SF-268; assay: Growth inhibition of human SF-268 cells by sulforhodamine B assay; assay type: functional
[19] = target: T7, Macrophage colony-stimulating factor 1 receptor; assay: Inhibition of FMS (unknown origin) by kinase assay

SMILES: CC1(C)CC=C(c2nc(C3CC(C)(C)OC(C)(C)C3)ccc2NC(=O)c2nc(C#N)c[nH]2)CC1 [EDICOTINIB]
IC50 [1]: 190 nM

SMILES: COc1nc(F)ccc1CNc1ccc(Cc2c[nH]c3ncc(C)cc23)c(F)n1
IC50 [2]: 16 nM
IC50 [3]: 1000 nM
IC50 [4]: 1100 nM
IC50 [5]: 390 nM
IC50 [6]: 860 nM

SMILES: FC(F)(F)c1ccc(CNc2ccc(Cc3c[nH]c4ncc(Cl)cc34)cn2)cn1 [PEXIDARTINIB]
IC50 [7]: 880 nM
IC50 [8]: 350 nM
IC50 [9]: 860 nM
IC50 [10]: 890 nM
IC50 [11]: 20 nM

SMILES: Cc1nc2[nH]cc(Cc3ccc(NCc4ccc(C(F)(F)F)nc4)nc3)c2c(C)c1O
IC50 [12]: 57800 nM
IC50 [13]: 1630 nM
inhibition [14]: 8.12%

SMILES: CNC(=O)c1cc2c(Oc3ccc(NC(=S)NC(=O)Cc4ccccc4)cc3F)ccnc2cc1OC [TAS-115]
IC50 [15]: 15 nM

SMILES: CNC(=O)c1nccc2cc(-c3cncc(Nc4ccc(OC5CC5)nc4)c3C)[nH]c12
IC50 [13]: 1.13 nM

Continued, in another order:

IC50 [12]: 30 nM
SMILES: Nc1nccc2c1ccn2-c1cccc(NC(=O)c2ccc(N3CCOCC3)c(C(F)(F)F)c2)c1

IC50 [12]: 12 nM
SMILES: COc1ccc(COc2ncc(Oc3ccnc(C(=O)N[11CH3])c3)cc2OC)cc1

inhibition [16]: 14.5%
SMILES: COc1ccc(Oc2nc(Nc3ccc(N4CCCCC4)nc3)ncc2NC(=O)c2cc(OC)cc(OC)c2)cc1

inhibition [17]: 87.7%
SMILES: COc1ccc(Oc2nc(Nc3ccc(N4CCOCC4)cc3)ncc2NC(=O)c2cccc(SC)c2)cc1

IC50 [19]: 15 nM
SMILES: COc1cc(NC(=O)Nc2cnc(Nc3ccc(N4CCOCC4)cc3)nc2Oc2cccc(OC)c2)cc(OC)c1
GI50 [18]: 50300 nM
